# Read-outs that look alike come from different tables or passages of the source.
# Key:
# [1] = PK of topical ocular sodium phosphate-based Gel Drop, concentrations 1 hour after last dose; assay type: in vivo, Dutch-belted rabbits; conditions: Dutch-belted, rabbit, retina, read-out: Mean [retina]
# From the text: The Gel Drop of Compound-I was applied to eyes of Dutch-belted rabbits.
# [2] = 1- to 5-day PK, topical ocular Compound-I formulations of Table 8A, 30 μL bilateral dose; assay type: in vivo, Dutch Belted rabbits
# Method: On day 1, Groups 1, 2, 4-6, 8, 10, 11, 13, 15, and 17 received one dose (q.d.) for either one (1) or four (4) days.
# Peripheral retina and peripheral choroid samples were assayed only for Groups 1-8, 12, 14, and 16 per study protocol.
# [3] = set-up: species or system Dutch-Belted rabbits and beagle dogs; conditions: Dutch-belted, beagle, rabbit, dog, in vivo
# From the text: Animals that received topical ocular administration of the tromethamine-based suspension were able to tolerate up to higher level of the active agent concentration in the formulation, as compared to equimolar formulations of the sodium phosphate-based Gel Drop.
# Overall, the combination of decreased corneal exposure and corresponding improved ocular tolerability, while simultaneously maintaining or promoting drug delivery to the posterior segment target tissues, along with improved physicochemical stability, will provide greater benefit to patients compared to the ophthalmic Gel Drop formulation.
# Retinal function was normal in all test article and vehicle treated groups during full-field electroretinograms performed in rabbits.
# [4] = Group 2 q.d., 1 hr post day 5 morning dose
# [5] = Group 2 q.d., 8 hr post day 5 morning dose
# [6] = Group 2 q.d., 24 hr post day 5 morning dose
# [7] = Group 3 b.i.d., 1 hr post day 5 morning dose
# [8] = Group 3 b.i.d., 24 hr post day 5 morning dose
# [9] = Group 4 q.d., 1 hr post day 5 morning dose
# [10] = Group 5 q.d., 24 hr post day 1 dose
# [11] = Group 6 q.d., 1 hr post day 5 morning dose
# [12] = Group 6 q.d., 8 hr post day 5 morning dose
# [13] = Group 6 q.d., 24 hr post day 5 morning dose
# [14] = Group 7 b.i.d., 1 hr post day 5 morning dose
# [15] = Group 11 q.d., 24 hr post day 5 morning dose, n = 1
compound,measurement,setting,value
"Cl.NC(=O)c1c(OCc2c(F)cc(Br)cc2F)nsc1NC(=O)NCCCCN1CCCC1 [Compound-I, 3-[(4-bromo-2,6-difluorophenyl)methoxy]-5-[[[[4-(1-pyrrolidinyl)butyl]amino]carbonyl]amino]-4-isothiazolecarboxamide hydrochloride]",concentration at 1 h,"[1]; 2 mg/ml, pH 6, 2 mg/ml pH 6 Phos 0.05% BAK 0.005% Gly 2% PS80 1% Osmo 261, 3x/day 5 days",126 nM
same,concentration at 1 h,"[1]; 2 mg/ml, pH 6, 2 mg/ml pH 6.0 Phos 0.05% BAK 0.005% Gly 2% PS80 1% Tylox 0.2%, 3x/day 5 days",85.7 nM
same,concentration at 1 h,"[1]; 2 mg/ml, pH 6, 2 mg/ml pH 6.0 Phos 0.05% BAK 0.005% Gly 2%, 3x/day 5 days",113 nM
same,concentration at 1 h,"[1]; 2 mg/ml, pH 6, 2 mg/ml pH 6.0 Phos 0.1% BAK 0.005% Gly 2%, 3x/day 5 days",42.9 nM
same,concentration at 1 h,"[1]; 2 mg/ml, pH 6, 2 mg/ml pH 6.0 Phos 0.2% BAK 0.005% Gly 2%, 3x/day 5 days",34.8 nM
same,concentration at 1 h,"[1]; 4 mg/ml, pH 6, 4 mg/ml pH 6.0 Phos 0.2% BAK 0.005% Gly 2%, 3x/day 5 days",68.3 nM
same,concentration at 1 h,"[1]; 4 mg/ml, pH 6, 4 mg/ml pH 6.0 Phos 2% BAK 0.005% Gly 2% PS80 1% Tylox 0.2%, 3x/day 5 days",97.6 nM
same,concentration at 24 h,"[2]; Dutch Belted, rabbit, cornea, topical, 30 μL bilateral, Group 2 q.d., 24 hr post day 5 morning dose",29700 nM
same,"Average Concentration, Peripheral Choroid","[2]; Group 1 q.d., 0.5 hr post day 1 dose, LLOQ = 0.0349 μM",<LLOQ
same,"Average Concentration, Central Retina","[2]; Group 1 q.d., 1 hr post day 1 dose, LLOQ = 0.0181 μM",<LLOQ
same,"Average Concentration, Peripheral Choroid","[2]; Group 1 q.d., 1 hr post day 1 dose, n = 1",*0.0856 μM
same,"Average Concentration, Central Retina","[2]; Group 1 q.d., 24 hr post day 1 dose, LLOQ = 0.0181 μM",<LLOQ
same,concentration at 24 h,"[2]; Group 1 q.d., 24 hr post day 1 dose, read-out: Average Concentration, Cornea",6940 nM
same,"Average Concentration, Aqueous Humor",[2]; [4],0.00996 µM
same,"Average Concentration, Peripheral Choroid",[2]; [4],0.737 µM
same,"Average Concentration, Central Choroid","[2]; Group 2 q.d., 1 hr post day 5 morning dose, n = 1",*0.207 μM
same,concentration at 24 h,"[2]; Group 2 q.d., 1 hr post day 5 morning dose, read-out: Average Concentration, Cornea",112000 nM
same,"Average Concentration, Aqueous Humor",[2]; [5],0.0165 µM
same,"Average Concentration, Peripheral Choroid",[2]; [5],0.687 µM
same,"Average Concentration, Central Choroid","[2]; Group 2 q.d., 8 hr post day 5 morning dose, n = 1",*0.237 μM
same,concentration at 24 h,"[2]; Group 2 q.d., 8 hr post day 5 morning dose, read-out: Average Concentration, Cornea",32700 nM
same,"Average Concentration, Aqueous Humor",[2]; [6],0.00336 µM
same,"Average Concentration, Peripheral Choroid",[2]; [6],1.14 µM
same,"Average Concentration, Peripheral Retina",[2]; [6],0.380 µM
same,"Average Concentration, Central Retina","[2]; Group 2 q.d., 24 hr post day 5 morning dose, LLOQ = 0.0181 μM",<LLOQ
same,"Average Concentration, Central Choroid","[2]; Group 2 q.d., 24 hr post day 5 morning dose, n = 1",*0.205 μM
same,"Average Concentration, Aqueous Humor",[2]; [7],0.0142 µM
same,"Average Concentration, Central Choroid",[2]; [7],0.255 µM
same,concentration at 24 h,"[2]; Group 3 b.i.d., 1 hr post day 5 morning dose, read-out: Average Concentration, Cornea",151000 nM
same,"Average Concentration, Aqueous Humor",[2]; [8],0.00774 µM
same,"Average Concentration, Peripheral Retina",[2]; [8],0.0597 µM
same,concentration at 24 h,"[2]; Group 3 b.i.d., 24 hr post day 5 morning dose, read-out: Average Concentration, Cornea",82100 nM
same,"Average Concentration, Aqueous Humor",[2]; [9],0.00996 µM
same,"Average Concentration, Central Retina",[2]; [9],0.0431 µM
same,"Average Concentration, Peripheral Choroid",[2]; [9],0.629 µM
same,"Average Concentration, Peripheral Retina",[2]; [9],0.0883 µM
same,concentration at 24 h,"[2]; Group 4 q.d., 1 hr post day 5 morning dose, read-out: Average Concentration, Cornea",78700 nM
same,"Average Concentration, Aqueous Humor","[2]; Group 5 q.d., 0.5 hr post day 1 dose, LLOQ = 0.000903 μM",<LLOQ
same,"Average Concentration, Central Retina","[2]; Group 5 q.d., 0.5 hr post day 1 dose, LLOQ = 0.0181 μM",<LLOQ
same,"Average Concentration, Peripheral Choroid","[2]; Group 5 q.d., 0.5 hr post day 1 dose, LLOQ = 0.0349 μM",<LLOQ
same,concentration at 24 h,"[2]; Group 5 q.d., 0.5 hr post day 1 dose, read-out: Average Concentration, Cornea",21000 nM
same,"Average Concentration, Peripheral Retina","[2]; Group 5 q.d., 1 hr post day 1 dose",0.0253 µM
same,"Average Concentration, Peripheral Retina","[2]; Group 5 q.d., 2 hr post day 1 dose",0.0253 µM
same,concentration at 24 h,"[2]; Group 5 q.d., 8 hr post day 1 dose, read-out: Average Concentration, Cornea",7740 nM
same,"Average Concentration, Aqueous Humor",[2]; [10],0.00228 µM
same,"Average Concentration, Peripheral Choroid",[2]; [10],0.116 µM
same,"Average Concentration, Central Retina","[2]; Group 5 q.d., 24 hr post day 1 dose, LLOQ = 0.0181 μM",<LLOQ
same,"Average Concentration, Peripheral Retina","[2]; Group 5 q.d., 24 hr post day 1 dose, n = 1",*0.0103 μM
same,concentration at 24 h,"[2]; Group 5 q.d., 24 hr post day 1 dose, read-out: Average Concentration, Cornea",2430 nM
same,"Average Concentration, Aqueous Humor",[2]; [11],0.00323 µM
same,"Average Concentration, Central Choroid",[2]; [11],0.319 µM
same,"Average Concentration, Central Retina",[2]; [11],0.0463 µM
same,"Average Concentration, Peripheral Choroid",[2]; [11],0.311 µM
same,"Average Concentration, Peripheral Retina",[2]; [11],0.0634 µM
same,concentration at 24 h,"[2]; Group 6 q.d., 1 hr post day 5 morning dose, read-out: Average Concentration, Cornea",21800 nM
same,"Average Concentration, Aqueous Humor",[2]; [12],0.00742 µM
same,"Average Concentration, Central Retina",[2]; [12],0.0537 µM
same,"Average Concentration, Peripheral Choroid",[2]; [12],0.257 µM
same,concentration at 24 h,"[2]; Group 6 q.d., 8 hr post day 5 morning dose, read-out: Average Concentration, Cornea",9100 nM
same,"Average Concentration, Aqueous Humor",[2]; [13],0.00122 µM
same,"Average Concentration, Peripheral Choroid",[2]; [13],0.343 µM
same,"Average Concentration, Peripheral Retina",[2]; [13],0.0533 µM
same,concentration at 24 h,"[2]; Group 6 q.d., 24 hr post day 5 morning dose, read-out: Average Concentration, Cornea",2330 nM
same,"Average Concentration, Aqueous Humor",[2]; [14],0.00648 µM
same,"Average Concentration, Central Choroid",[2]; [14],0.514 µM
same,"Average Concentration, Central Retina",[2]; [14],0.0469 µM
same,"Average Concentration, Peripheral Choroid",[2]; [14],0.744 µM
same,"Average Concentration, Peripheral Retina",[2]; [14],0.0819 µM
same,"Average Concentration, Aqueous Humor",[2]; [15],*0.00205 μM
same,"Average Concentration, Central Choroid",[2]; [15],*0.179 μM
same,"Average Concentration, Central Retina",[2]; [15],*0.0185 μM
same,cornea concentration above which ocular side effects were more consistently observed,[3],exceeded 100 μM

# Source: patent US10307404B1, “Ocular formulations for drug-delivery to the posterior segment of the eye” (priority 2013, dated 2019)
